Results as given in PubChem BioAssay AID2060501 (Molecular Pharmacology Branch, DTP, NCI, 2025).

Tested on: 282377-053-R-J1-PDC complex spheroids, viability
Test: Anticancer human tumor 282377-053-R-J1-PDC patient-derived colon adenocarcinoma cell line growth inhibition [GQUAD]
Conditions: for IC50: curve of first compound; for viability, T/C: stronger effect = lower value; active = viability on the fitted dose curve at most 10% of control; inactive = the rest
How it was run: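 Viability of tumor cells grown as complex spheroids with endothelial and stromal cells, exposed to drug combinations. Top concentration at or near clinical Cmax (else 10 microM), diluted in half-log increments.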

[1] = second compound 0.0316 µM, first compound 0.0316 µM
[2] = second compound 0.0316 µM, first compound 0.1 µM
[3] = second compound 0.0316 µM, first compound 0.316 µM
[4] = second compound 0.0316 µM, first compound 1 µM
[5] = second compound 0.0316 µM, first compound 3.16 µM
[6] = second compound 0.0316 µM, first compound 10 µM
[7] = second compound 0.1 µM, first compound 0.0316 µM
[8] = second compound 0.1 µM, first compound 0.1 µM
[9] = second compound 0.1 µM, first compound 0.316 µM
[10] = second compound 0.1 µM, first compound 1 µM
[11] = second compound 0.1 µM, first compound 3.16 µM
[12] = second compound 0.1 µM, first compound 10 µM
[13] = second compound 0.316 µM, first compound 0.0316 µM
[14] = second compound 0.316 µM, first compound 0.1 µM
[15] = second compound 0.316 µM, first compound 0.316 µM
[16] = second compound 0.316 µM, first compound 1 µM
[17] = second compound 0.316 µM, first compound 3.16 µM
[18] = second compound 0.316 µM, first compound 10 µM
[19] = second compound 1 µM, first compound 0.0316 µM
[20] = second compound 1 µM, first compound 0.1 µM
[21] = second compound 1 µM, first compound 0.316 µM
[22] = second compound 1 µM, first compound 1 µM
[23] = second compound 1 µM, first compound 3.16 µM
[24] = second compound 1 µM, first compound 10 µM
[25] = second compound 3.16 µM, first compound 0.0316 µM
[26] = second compound 3.16 µM, first compound 0.1 µM
[27] = second compound 3.16 µM, first compound 0.316 µM
[28] = second compound 3.16 µM, first compound 1 µM
[29] = second compound 3.16 µM, first compound 3.16 µM
[30] = second compound 3.16 µM, first compound 10 µM
[31] = second compound 10 µM, first compound 0.0316 µM
[32] = second compound 10 µM, first compound 0.1 µM
[33] = second compound 10 µM, first compound 0.316 µM
[34] = second compound 10 µM, first compound 1 µM
[35] = second compound 10 µM, first compound 3.16 µM
[36] = second compound 10 µM, first compound 10 µM
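Also: spheroids exposed to compounds for 7 days before readout.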
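For viability, T/C in this document: percent of vehicle DMSO control viability with 100% = untreated-like growth.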

C#Cc1c(F)ccc2cc(O)cc(-c3ncc4c(N5CC6CCC(C5)N6)nc(OCC56CCCN5CC(F)C6)nc4c3F)c12 (stereo unspecified) + Cc1[nH]c2ccc(F)cc2c1-c1nc2c3cccnc3c3ncccc3c2[nH]1
1890 nM: IC50 (second compound 0.0316 µM)
825 nM: IC50 (second compound 1 µM)
1280 nM: IC50 (second compound 0.1 µM)
1370 nM: IC50 (second compound 0.316 µM)
active: viability, T/C [23] 6.79% | viability, T/C [24] 6.81% | viability, T/C [28] 3.57% | viability, T/C [29] 1.91% | viability, T/C [30] 1.84% | viability, T/C [33] 14.7% | viability, T/C [34] 2.45% | viability, T/C [35] 1.52% | viability, T/C [36] 1.43%
35.9 nM: IC50 (second compound 3.16 µM)
< 31.6 nM: IC50 (second compound 10 µM)
inactive: viability, T/C [1] 108% | viability, T/C [2] 95.5% | viability, T/C [3] 82.2% | viability, T/C [4] 83.2% | viability, T/C [5] 20.6% | viability, T/C [6] 26% | viability, T/C [7] 104% | viability, T/C [8] 114% | viability, T/C [9] 98.3% | viability, T/C [10] 59.6% | viability, T/C [11] 13.2% | viability, T/C [12] 22.9% | viability, T/C [13] 96.9% | viability, T/C [14] 102% | viability, T/C [15] 90.4% | viability, T/C [16] 64.4% | viability, T/C [17] 9.13% | viability, T/C [18] 13.3% | viability, T/C [19] 105% | viability, T/C [20] 110% | viability, T/C [21] 102% | viability, T/C [22] 39.5% | viability, T/C [25] 52.7% | viability, T/C [26] 28.4% | viability, T/C [27] 15.7% | viability, T/C [31] 34.4% | viability, T/C [32] 15.4%

C=CCn1c(=O)c2cnc(Nc3ccc(N4CCN(C)CC4)cc3)nc2n1-c1cccc(C(C)(C)O)n1 + Cc1[nH]c2ccc(F)cc2c1-c1nc2c3cccnc3c3ncccc3c2[nH]1
inactive: viability, T/C [1] 101% | viability, T/C [2] 61.7% | viability, T/C [3] 95% | viability, T/C [4] 73.2% | viability, T/C [5] 63.7% | viability, T/C [6] 15.3% | viability, T/C [7] 80.2% | viability, T/C [8] 65.2% | viability, T/C [9] 79.8% | viability, T/C [10] 62.2% | viability, T/C [11] 56.5% | viability, T/C [12] 12.7% | viability, T/C [13] 91.6% | viability, T/C [14] 70.5% | viability, T/C [15] 77.7% | viability, T/C [16] 70% | viability, T/C [17] 51.4% | viability, T/C [18] 12.8% | viability, T/C [19] 84.5% | viability, T/C [20] 71% | viability, T/C [21] 72.6% | viability, T/C [22] 59.5% | viability, T/C [23] 44.3% | viability, T/C [24] 11% | viability, T/C [25] 50.3% | viability, T/C [26] 49.1% | viability, T/C [27] 24% | viability, T/C [28] 16.9% | viability, T/C [31] 20.7% | viability, T/C [32] 41.4% | viability, T/C [33] 16.9% | viability, T/C [34] 11.4%
< 31.6 nM: IC50 (second compound 10 µM)
4250 nM: IC50 (second compound 0.0316 µM)
active: viability, T/C [29] 12.7% | viability, T/C [30] 2.18% | viability, T/C [35] 7.59% | viability, T/C [36] 1.56%
3540 nM: IC50 (second compound 0.1 µM)
44.7 nM: IC50 (second compound 3.16 µM)
1950 nM: IC50 (second compound 1 µM)
3230 nM: IC50 (second compound 0.316 µM)

CC(C)(O)C1CCC(Nc2ccc3ncc(-c4cccc(C(F)(F)F)c4)n3n2)CC1 (stereo unspecified) + Cc1[nH]c2ccc(F)cc2c1-c1nc2c3cccnc3c3ncccc3c2[nH]1
inactive: viability, T/C [1] 107% | viability, T/C [2] 95.9% | viability, T/C [3] 114% | viability, T/C [4] 103% | viability, T/C [5] 86.1% | viability, T/C [6] 76.9% | viability, T/C [7] 122% | viability, T/C [8] 103% | viability, T/C [9] 91.5% | viability, T/C [10] 95.3% | viability, T/C [11] 103% | viability, T/C [12] 73.3% | viability, T/C [13] 107% | viability, T/C [14] 96.7% | viability, T/C [15] 87.7% | viability, T/C [16] 95.1% | viability, T/C [17] 103% | viability, T/C [18] 91.9% | viability, T/C [19] 115% | viability, T/C [20] 95.8% | viability, T/C [21] 88.8% | viability, T/C [22] 118% | viability, T/C [23] 81.4% | viability, T/C [24] 92.3% | viability, T/C [25] 88.8% | viability, T/C [26] 71.1% | viability, T/C [27] 70.7% | viability, T/C [28] 79.2% | viability, T/C [29] 100% | viability, T/C [30] 63.1% | viability, T/C [31] 61.9% | viability, T/C [32] 51.5% | viability, T/C [33] 75.6% | viability, T/C [34] 48.4% | viability, T/C [35] 46.9% | viability, T/C [36] 42.7%
> 10000 nM: IC50 (second compound 0.0316 µM) | IC50 (second compound 0.1 µM) | IC50 (second compound 0.316 µM) | IC50 (second compound 1 µM) | IC50 (second compound 3.16 µM)
2900 nM: IC50 (second compound 10 µM)
